Molecules are shown by their SMILES.

This note sets out measurements from ChEMBL document CHEMBL3792365, “Dioxol and dihydrodioxin analogs of 2- and 3-phenylacetonitriles as potent anti-cancer agents with nanomolar activity against a variety of human cancer cells” (2016).

Holding throughout (assay type): functional
The nature of assay [1]: Growth inhibition of human Hs 578T cells at 10 uM after 48 hrs by sulforhodamine B assay. Particulars: values are per cent of control. For orientation: Sulforhodamine B stains cellular protein and so reports cell mass.
Assay [2] can be described thus: Growth inhibition of human LOXIMVI cells at 10 uM after 48 hrs by sulforhodamine B assay. Particulars: LOX IMVI, values are per cent of control.
The subject of the next assay is A498. Description: Growth inhibition of human A498 cells at 10 uM after 48 hrs by sulforhodamine B assay. Particulars: A498, 48 h, values are per cent of control.
Assay [3] is described as follows: Growth inhibition of human RPMI8226 cells at 10 uM after 48 hrs by sulforhodamine B assay. To be noted: RPMI-8226, 48 h, values are per cent of control.
Assay [4] can be described thus: Growth inhibition of human OVCAR5 cells at 10 uM after 48 hrs by sulforhodamine B assay. To be noted: OVCAR-5, 48 h, values are per cent of control.
The subject of the next assay is MCF7. The experiment in a line: Growth inhibition of human MCF7 cells at 10 uM after 48 hrs by sulforhodamine B assay. To be noted: MCF7, 48 h, values are per cent of control.
Assay [5] can be described thus: Growth inhibition of human OVCAR8 cells at 10 uM after 48 hrs by sulforhodamine B assay. Particulars: OVCAR-8, 48 h, values are per cent of control.
Assay [6] can be described thus: Growth inhibition of human MOLT4 cells at 10 uM after 48 hrs by sulforhodamine B assay. To be noted: MOLT-4, 48 h, values are per cent of control.
Assay [7] can be described thus: Growth inhibition of human PC3 cells at 10 uM after 48 hrs by sulforhodamine B assay. To be noted: PC-3, 48 h, values are per cent of control.
Assay [8] in a line: Growth inhibition of human HOP92 cells at 10 uM after 48 hrs by sulforhodamine B assay. Particulars: HOP-92, 48 h, values are per cent of control.
The test system of another assay is CCRF-CEM. The experiment in a line: Growth inhibition of human CCRF-CEM cells at 10 uM after 48 hrs by sulforhodamine B assay. To be noted: values are per cent of control.
A short description of assay [9]: Growth inhibition of human HL-60(TB) cells at 10 uM after 48 hrs by sulforhodamine B assay. Particulars: HL-60, 48 h, values are per cent of control.
Another assay has as its system U-251. Description: Growth inhibition of human U251 cells at 10 uM after 48 hrs by sulforhodamine B assay. Particulars: U-251, 48 h, values are per cent of control.
Assay [10] is described as follows: Growth inhibition of human UO31 cells at 10 uM after 48 hrs by sulforhodamine B assay. Particulars: UO-31, 48 h, values are per cent of control.
Assay [11] in a line: Growth inhibition of human OVCAR3 cells at 10 uM after 48 hrs by sulforhodamine B assay. Particulars: OVCAR-3, 48 h, values are per cent of control.
The next assay has as its system NCI-H23. The experiment in a line: Growth inhibition of human NCI-H23 cells at 10 uM after 48 hrs by sulforhodamine B assay. Particulars: NCI-H23, 48 h, values are per cent of control.
Assay [12] can be described thus: Growth inhibition of human SF295 cells at 10 uM after 48 hrs by sulforhodamine B assay. To be noted: SF-295, 48 h, values are per cent of control.
The test system of another assay is Malme-3M. The experiment in a line: Growth inhibition of human MALME-3M cells at 10 uM after 48 hrs by sulforhodamine B assay. To be noted: values are per cent of control.
Assay [13] in a line: Growth inhibition of human UACC257 cells at 10 uM after 48 hrs by sulforhodamine B assay. To be noted: UACC-257, 48 h, values are per cent of control.

Consider `N#C/C(=C\c1ccc2ccccc2n1)c1ccc2c(c1)OCO2`, for which the growth, % of control at 10 µM in assay [1] worked out at 34.8%; in [2], 59.5%; in the assay with A498, 54.1%; in assay [3], 84.9%; in [4], 81.1%; in the assay with MCF7, 84.6%. Also, the growth, % of control at 10 µM in assay [5] amounted to 60.8%; in [6], 78.5%; in [7] it was 77.5%; in assay [8], 90.2%; in the assay with CCRF-CEM, 89.7%; in assay [9], 87.1%. The growth, % of control at 10 µM in the assay on U-251 came to 26.7%; in [10] it was 72.8%; in assay [11], 63%; with NCI-H23, 58.8%; in assay [12], 64%; with Malme-3M, 68.3%.

With `N#C/C(=C\c1ccc(Cl)c(Cl)c1)c1ccc2c(c1)OCO2`, the growth, % of control at 10 µM was 81.3% in assay [1]; 62.7% in assay [2]; 94.3% in the assay with A498; 86.3% in assay [13]; 80.1% in [3]; 99.3% in assay [4]. Also, the growth, % of control at 10 µM in the assay with MCF7 stood at 79.9%; in [5], 70.9%; in assay [6] it was 72.2%; in assay [7], 91.5%; with CCRF-CEM, 91.9%; in assay [9] it was 83.1%. In addition, the growth, % of control at 10 µM with U-251 amounted to 86.3%; in [10], 73.7%; in assay [11] it was 97.7%; in the assay on NCI-H23, 88%; in [12], 77%.

Regarding `COc1ccc(/C=C(\C#N)c2ccc3c(c2)OCO3)c(Cl)c1OC`, the growth, % of control at 10 µM amounted to 81.9% in assay [1]; 77.3% in assay [2]; 72.5% with A498; 106% in assay [13]; 92.8% in [4]; 71.6% in the assay with MCF7. Besides, the growth, % of control at 10 µM was 100% in assay [5]; 95.5% with U-251; 74.9% in [10]; 100% in assay [11]; 85% in the assay with NCI-H23; 91.1% in assay [12]. The compound also had a growth, % of control at 10 µM with Malme-3M of 79.1%.

As for `COc1ccc(/C(C#N)=C/c2ccc3c(c2)OCO3)cc1`, the growth, % of control at 10 µM in assay [1] stood at 92.4%; in assay [2] it was 102%; in the assay on A498 it was 63.3%; in assay [3] it was 64.7%; in assay [4] it was 93.9%; in the assay with MCF7, 60.8%. Moreover, the growth, % of control at 10 µM in assay [5] stood at 94.7%; in assay [6], 70.4%; in [7], 81%; in assay [8], 93%; in the assay on CCRF-CEM, 72.1%; in assay [9], 66.6%. The growth, % of control at 10 µM in the assay on U-251 amounted to 80.9%; in assay [10] it was 72.8%; in assay [11] it was 88.7%; with NCI-H23 it was 96.1%; in [12] it was 80.8%; with Malme-3M it was 79.9%.

On to `N#C/C(=C\c1ccsc1)c1ccc2c(c1)OCO2`, for which the growth, % of control at 10 µM in assay [1] worked out at 119%; in assay [2] it was 112%; in the assay with A498 it was 103%; in assay [13], 110%; in assay [3], 104%; in [4] it was 115%. The growth, % of control at 10 µM in the assay with MCF7 turned out to be 87.1%; in assay [5] it was 90.8%; in [6], 79.7%; in assay [7], 110%; in the assay with CCRF-CEM it was 104%; in assay [9], 83.5%. The growth, % of control at 10 µM in the assay with U-251 stood at 93.7%; in [10] it was 84.6%; in [11], 103%; with NCI-H23, 106%; in assay [12] it was 101%; with Malme-3M it was 114%.

Take `N#C/C(=C\c1cccnc1Cl)c1ccc2c(c1)OCO2`: the growth, % of control at 10 µM in assay [1] was found to be 129%; in assay [2], 103%; in the assay on A498, 90.7%; in [13], 112%; in assay [3] it was 89.3%; in assay [4], 106%. The growth, % of control at 10 µM in the assay with MCF7 was found to be 112%; in assay [5] it was 56.2%; in [7], 101%; with CCRF-CEM, 93.7%; in assay [9], 83.8%; in the assay on U-251, 95.8%. Also, the growth, % of control at 10 µM in assay [10] came to 87.6%; in [11], 115%; in the assay on NCI-H23 it was 97.2%; in assay [12] it was 110%; in the assay with Malme-3M, 107%.

Consider `COc1cc(/C=C(\C#N)c2ccc3c(c2)OCO3)cc(OC)c1OC`, for which the growth, % of control at 10 µM in assay [1] amounted to 100%; in [2], 109%; in the assay with A498, 81.8%; in [13] it was 97.5%; in [3], 88.5%; in [4] it was 99.7%. Besides, the growth, % of control at 10 µM in [5] turned out to be 96.3%; in assay [6] it was 87.2%; in [7] it was 88.7%; in the assay on CCRF-CEM, 96.5%; in [9], 88.6%; with U-251 it was 96.6%. Further, the growth, % of control at 10 µM is 67.1% in assay [10]; 108% in assay [11]; 94.5% with NCI-H23; 96.1% in [12]; 98.9% in the assay with Malme-3M.

Regarding `N#C/C(=C\c1c(Cl)cccc1Cl)c1ccc2c(c1)OCO2`, the growth, % of control at 10 µM in assay [1] was 101%; in assay [2], 98.9%; in the assay on A498, 82.7%; in [13] it was 99.8%; in [3], 84.4%; in assay [4] it was 103%. Besides, the growth, % of control at 10 µM in the assay on MCF7 is 93.7%; in assay [5] it was 92.6%; in assay [6] it was 61.2%; in assay [7] it was 94.3%; with CCRF-CEM, 86.7%; in assay [9], 75%. The growth, % of control at 10 µM in the assay on U-251 came to 89%; in [10], 80.1%; in assay [11], 97.7%; in the assay on NCI-H23, 93.7%; in assay [12], 95.6%; with Malme-3M, 56.1%.

As for `COc1cc(/C=C(\C#N)c2ccc3c(c2)OCO3)cc(OC)c1`, the growth, % of control at 10 µM in assay [1] is 115%; in [2], 103%; with A498, 88.9%; in assay [13], 97%; in [3], 89.4%; in assay [4], 111%. The growth, % of control at 10 µM with MCF7 is 85.5%; in assay [5], 92.3%; in assay [6], 67.2%; in assay [7] it was 97.3%; in the assay on CCRF-CEM, 83.4%; in assay [9], 64.5%. Besides, the growth, % of control at 10 µM is 93.7% in the assay with U-251; 78.6% in [10]; 103% in [11]; 96.6% with NCI-H23; 99.2% in assay [12]; 95.7% in the assay on Malme-3M.
